Reference: ChEMBL document CHEMBL3045406, “Enantioselective Relieving Activity of α-Methylbenzylphenylureas toward Bensulfuron-methyl Injury to Rice (Oryza sativa)” (Biosci Biotechnol Biochem, 1999)

How the values were obtained:
Oryza sativa [1] = assay: Relieving activity against bensulfuron-methyl induced injury to Oryza sativa (rice) assessed as growth rate at 0.1 uM (Rbv = 46 to 53%); assay type: functional
[2] = Hydrophobicity, log K of the compound; assay type: physicochemical; conditions: octanol/water
Oryza sativa [3] = assay: Effect on Oryza sativa (rice) assessed as growth rate at 0.1 uM relative to control; assay type: organism-based; conditions: in vivo
Oryza sativa [4] = assay: Safener indices, ratio of compound effect of Oryza sativa (rice) growth rate to relieving activity against bensulfuron-methyl induced injury to Oryza sativa growth rate at 10 uM
Oryza sativa [5] = assay: Effect on Oryza sativa (rice) assessed as growth rate at 10 uM relative to control; assay type: organism-based; conditions: in vivo
Oryza sativa [6] = assay: Relieving activity against bensulfuron-methyl induced injury to Oryza sativa (rice) assessed as growth rate at 10 uM (Rbv = 46 to 53%); assay type: functional
Oryza sativa [7] = assay: Safener indices, ratio of compound effect of Oryza sativa (rice) growth rate to relieving activity against bensulfuron-methyl induced injury to Oryza sativa growth rate at 1 uM
Oryza sativa [8] = assay: Relieving activity against bensulfuron-methyl induced injury to Oryza sativa (rice) assessed as growth rate at 1 uM (Rbv = 46 to 53%); assay type: functional
Oryza sativa [9] = assay: Safener indices, ratio of compound effect of Oryza sativa (rice) growth rate to relieving activity against bensulfuron-methyl induced injury to Oryza sativa growth rate at 0.1 uM
Oryza sativa [10] = assay: Effect on Oryza sativa (rice) assessed as growth rate at 1 uM relative to control; assay type: organism-based; conditions: in vivo

Row | Compound | log K [2] | Activity (Oryza sativa [3]) [%] | Activity (Oryza sativa [5]) [%] | Activity (Oryza sativa [10]) [%] | Activity (Oryza sativa [1]) [%] | Ratio (Oryza sativa [4]) | Activity (Oryza sativa [6]) [%] | Ratio (Oryza sativa [7]) | Activity (Oryza sativa [8]) [%] | Ratio (Oryza sativa [9])
1 | CC(=O)c1ccc(NC(=O)N[C@@H](C)c2ccccc2)cc1 | 0.227 | 99 | 96 | 99 | 60 | 74 | 86 | 63 | 81 | 24
2 | CCCc1ccc(NC(=O)N[C@H](C)c2ccccc2)cc1 | 0.602 | 33 | 35 | 31 | 32 | 24 | 38 | 20 | 33 | 18
3 | CCc1ccc(NC(=O)N[C@@H](C)c2ccccc2)cc1 | 0.487 | 99 | 91 | 95 | 74 | 72 | 84 | 62 | 80 | 7
4 | CCCCCCc1ccc(NC(=O)N[C@@H](C)c2ccccc2)cc1 | 1.081 | 99 | 99 | 100 | 51 | 25 | 61 | 11 | 54 | 6
5 | C[C@@H](NC(=O)Nc1ccc(C(C)(C)C)cc1)c1ccccc1 | 0.673 | 100 | 53 | 88 | 58 | 42 | 57 | 35 | 64 | 15
6 | CCCc1ccc(NC(=O)N[C@@H](C)c2ccccc2)cc1 | 0.602 | 97 | 73 | 76 | 66 | 50 | 69 | 47 | 68 | 30
7 | CCc1cccc(CC)c1NC(=O)N[C@H](C)c1ccccc1 | 0.523 | 101 | 99 | 101 | 54 | 53 | 77 | 25 | 63 | 6
8 | C[C@H](NC(=O)Nc1ccc(Br)cc1)c1ccccc1 | 0.488 | 98 | 96 | 97 | 62 | 69 | 84 | 59 | 79 | 24
9 | CCCCCc1ccc(NC(=O)N[C@H](C)c2ccccc2)cc1 | 0.912 | 100 | 97 | 101 | 54 | 38 | 69 | 27 | 65 | 3
10 | CCCCc1ccc(NC(=O)N[C@@H](C)c2ccccc2)cc1 | 0.76 | 98 | 60 | 72 | 60 | 37 | 56 | 50 | 68 | 21
11 | CC(C)c1cccc(NC(=O)N[C@H](C)c2ccccc2)c1 | 0.58 | 74 | 44 | 61 | 45 | 29 | 43 | 27 | 48 | 16
12 | Cc1ccc(NC(=O)N[C@H](C)c2ccccc2)cc1 | 0.367 | 100 | 64 | 98 | 54 | 46 | 63 | 41 | 70 | 9
13 | Cc1ccc(NC(=O)N[C@@H](C)c2ccccc2)cc1 | 0.367 | 100 | 100 | 99 | 72 | 82 | 91 | 73 | 86 | 45

The next lines start with results.

Row | log K [2] | Activity (Oryza sativa [3]) [%] | Activity (Oryza sativa [5]) [%] | Activity (Oryza sativa [10]) [%] | Compound | Activity (Oryza sativa [1]) [%] | Ratio (Oryza sativa [4]) | Activity (Oryza sativa [6]) [%] | Ratio (Oryza sativa [7]) | Activity (Oryza sativa [8]) [%] | Ratio (Oryza sativa [9])
14 | 0.439 | 96 | 87 | 95 | C[C@@H](NC(=O)Nc1ccc(Cl)cc1)c1ccccc1 | 50 | 71 | 84 | 61 | 80 | 1
15 | 0.61 | 98 | 93 | 96 | C[C@@H](NC(=O)Nc1ccc(Cl)c(Cl)c1)c1ccccc1 | 57 | 56 | 77 | 34 | 66 | 15
16 | 0.367 | 97 | 77 | 95 | C[C@@H](NC(=O)Nc1ccccc1F)c1ccccc1 | 47 | 62 | 76 | 32 | 64 | 3
17 | 0.47 | 97 | 83 | 91 | C[C@@H](NC(=O)Nc1cccc(Cl)c1)c1ccccc1 | 50 | 32 | 61 | 19 | 57 | -2
18 | 0.452 | 98 | 96 | 98 | C[C@@H](NC(=O)Nc1cc(F)cc(F)c1)c1ccccc1 | 54 | 33 | 65 | 20 | 59 | 10
19 | 0.688 | 100 | 99 | 100 | C[C@H](NC(=O)Nc1ccc(Cl)cc1Cl)c1ccccc1 | 68 | 73 | 87 | 59 | 80 | 33
20 | 0.432 | 96 | 89 | 95 | CC(=O)c1ccccc1NC(=O)N[C@H](C)c1ccccc1 | 46 | 49 | 71 | 10 | 51 | 1
21 | 0.326 | 100 | 100 | 99 | C[C@@H](NC(=O)Nc1c(Cl)cccc1Cl)c1ccccc1 | 57 | 21 | 61 | 19 | 61 | 12
22 | 0.452 | 99 | 99 | 99 | C[C@H](NC(=O)Nc1cc(F)cc(F)c1)c1ccccc1 | 64 | 85 | 93 | 58 | 79 | 30
23 | 0.64 | 87 | 60 | 70 | C[C@@H](NC(=O)Nc1cc(C(F)(F)F)ccc1F)c1ccccc1 | 53 | 40 | 59 | 28 | 55 | 13
24 | 0.307 | 96 | 85 | 97 | C[C@H](NC(=O)Nc1ccc(F)cc1)c1ccccc1 | 51 | 74 | 86 | 47 | 72 | 7
25 | 0.486 | 101 | 93 | 103 | C[C@@H](NC(=O)Nc1ccccc1Cl)c1ccccc1 | 53 | 67 | 83 | 21 | 63 | 3
26 | 0.394 | 101 | 99 | 100 | C[C@H](NC(=O)Nc1ccc(F)cc1F)c1ccccc1 | 65 | 85 | 93 | 56 | 79 | 28
27 | 0.337 | 100 | 99 | 99 | Cc1ccccc1NC(=O)N[C@@H](C)c1ccccc1 | 52 | 58 | 79 | 21 | 60 | 5
28 | 0.486 | 99 | 106 | 104 | C[C@H](NC(=O)Nc1ccccc1Cl)c1ccccc1 | 75 | 95 | 98 | 80 | 91 | 50
